Reference: US6737059B1, “Methods of inhibiting inflammatory processes and alleviating symptoms associated with multiple sclerosis” (Board of Regents of the University Washington, priority 1992, dated 2004)
“And” between values parts separate entries of the source, which are not always exact repeats. Equal entries are not always repeated.

How the values were obtained:
[1] = test system: white blood cell; experiment: WBC counts in blood of EAE animals; type: in vivo, Macaca fascicularis; conditions: individual animals
Text: The hematologic hallmarks of untreated EAE are a progressive leukocytosis and lymphopenia prior to the onset of clinical signs. The leukocytosis can represent as much as a four-fold increase in the number of circulating PMNC and no significant changes in the frequency or absolute numbers of monocytes, eosinophils, or basophils. Following successful treatments of EAE, the absolute numbers of lymphocytes and PMNC return, fairly soon after the initiation of treatment, to pre-sensitization levels. Thus, continuous monitoring of blood leukocytes provides a useful measure of disease progression which complements the clinical evaluation and magnetic resonance imaging.
Blood was drawn on a weekly basis until the onset of clinical disease and then more frequently. One-half ml was sent to the hematology laboratory for WBC and differential counts. The results are set out in Table 3 below providing white blood cell number (×10^3) per mm^3 whole blood.
Two Macaca fascicularis monkeys were then involved in a study to preliminarily determine the ability of mAb 23F2G to alleviate EAE symptoms. The EAE induction procedures were essentially as in Example 1. Two animals, Nos. 89161 and 89186, sensitized to 1.0 mg of purified monkey basic protein and developed hyperacute hemorrhagic EAE 18 and 20 days post sensitization, respectively. Animal 89161 died within 12 hours of onset and before treatment with dexamethasone could be initiated. Animal 89186 was treated for a week with both dexamethasone (3 days at 4 mg/kg, 2 days at 2 mg/kg and 2 days at 1 mg/kg) and mAb 23F2G (7 days at 2 mg/kg, i.v.). The animal improved dramatically with complete resolution of paralysis three days after initiation of treatment. Lesions detected by MRI resolved four days after cessation of treatment and the animal improved dramatically with complete resolution of paralysis. Eight days following cessation of treatment, the animal relapsed and was sacrificed. […] The white blood cell count rose from 22.7×10^3 on the day of clinical onset to 82×10^3 /mm^3 on the last day of treatment.

[2] = test system: Experimental Allergic Encephalomyelitis (EAE); experiment: EAE in macaques: clinical evaluation and survival; type: in vivo, Macaca fascicularis
Description: Eighteen male monkeys Macaca fascicularis weighing 2-3 kg were sensitized to myelin basic protein (BP) by the intra dermal injection of 0.1 ml of an emulsion containing 5.0 mg of monkey BP and 0.5 mg of heat-killed M. tuberculosis. Each animal was obtained and housed by the Regional Primate Research Center at the University of Washington, Seattle. The Primate Center conforms to the National Institutes of Health Guide for the Care and Use of laboratory Animals. Ten days after sensitization to BP, each animal was outfitted with a femoral catheter and tether to facilitate blood sampling and the administration of treatments or anesthetics for magnetic resonance imaging (MRI). The animals were maintained on intravenous heparin (18 units/hour) to prevent blood clots from forming in the intra venous lines.
The animals were randomly admitted to specific treatment groups before they were sensitized to BP. This was done to schedule MRI and to prevent the severity of clinical signs at the onset from influencing the choice of therapy. Primate Center personnel, responsible for deciding when animals should be treated or sacrificed, were blinded regarding the treatment history of each animal. Table 1 below provides a statement of criteria for determination of clinical signs and grades of EAE in the animals.
At the onset of definite clinical signs (± to +) six EAE animals received a bolus injection of mAb 60.3 (2 mg/kg) and dexamethasone (4 mg/kg). […]. Sever acute EAE occurs in approximately 25 % of animals induced to develop EAE and is caused by edema in areas involving or impinging upon the brain stem or cerebral cortex. Following injection of the bolus, these six animals were treated by continuous infusion of mAb 60.3 (2 mg/kg/day) for seven days. […]. Six control EAE animals were treated only with dexamethasone, following the same protocol outlined above, and six additional controls were treated with continuous infusion of saline.
Animals that improved and/or stabilized as a result of therapy were sacrificed six weeks after the onset of clinical signs. Animals that experienced a clinical relapse (clinical signs ≧++) some time after the cessation of treatment and before six weeks had elapsed, were sacrificed shortly after the onset of the relapse. […] The statistical significance of differences in survival times in each treatment group was determined by two-tailed Student t analysis.
Disease progression was monitored by a combination of clinical evaluation, blood analysis and magnetic resonance imaging. Clinical evaluations were performed twice daily. […]

## C[C@@H]1C[C@H]2[C@@H]3CCC4=CC(=O)C=C[C@]4(C)[C@@]3(F)[C@@H](O)C[C@]2(C)[C@@]1(O)C(=O)CO [dexamethasone]
[1]; Day 2
  white blood cell number: 3.1 ×10^3 per mm^3 whole blood and 5.4 ×10^3 per mm^3 whole blood
[1]; Day 4
  white blood cell number: 3.7 ×10^3 per mm^3 whole blood and 3.6 ×10^3 per mm^3 whole blood
[1]; Day 7 (end of treatment)
  white blood cell number: 3.8 ×10^3 per mm^3 whole blood and 7.0 ×10^3 per mm^3 whole blood
[1]; Day 10
  white blood cell number: 8.7 ×10^3 per mm^3 whole blood and 10.7 ×10^3 per mm^3 whole blood
[1]; Day 14
  white blood cell number: 7.9 ×10^3 per mm^3 whole blood
[1]; Onset of clinical signs (start of treatment)
  white blood cell number: 9.6 ×10^3 per mm^3 whole blood and 9.0 ×10^3 per mm^3 whole blood and 14.6 ×10^3 per mm^3 whole blood and 32.2 ×10^3 per mm^3 whole blood and 12.4 ×10^3 per mm^3 whole blood and 16.3 ×10^3 per mm^3 whole blood
[1]; Presens (baseline before sensitization)
  white blood cell number: 4.7 ×10^3 per mm^3 whole blood and 6.1 ×10^3 per mm^3 whole blood and 6.7 ×10^3 per mm^3 whole blood and 13.5 ×10^3 per mm^3 whole blood and 8.9 ×10^3 per mm^3 whole blood and 14.1 ×10^3 per mm^3 whole blood
[2]; after onset, group of six EAE macaques
  mean survival time: 7 days
[2]; group of six EAE macaques
  survival after onset (range of group): 1 to 17 days
[2]; individual EAE macaques, 7-day treatment from onset of clinical signs, listed as dex alone
  Grade (severity of clinical signs at time of sacrifice): ++
[2]; individual EAE macaques, 7-day treatment from onset of clinical signs, stable animals sacrificed at six weeks (42 days), listed as dex alone
  Survival (days of survival post-onset): 17 days and 1 days (2×) and 2 days and 13 days and 9 days
